From publication PMC6135396, “Repurposing antimalarial aminoquinolines and related compounds for treatment of retinal neovascularization” (PLoS ONE, 2018) come the findings set out here.

For data set [1], the system named is choroidal neovascularization (CNV) lesions. The data set is described as follows: Laser-induced CNV mouse model. Type of data set: in vivo. The conditions noted are these: for CNV lesion volume vs vehicle control: two injections, choroidal flatmounts, 14 days post-laser.
Another data set can be described thus: LogD (pH 7.4). Type of data set: physicochemical.
Another data set can be described thus: Plasma stability, human. Type of data set: in vitro ADME.
A short description of data set [2]: Plasma-protein binding, rat. Type of data set: in vitro ADME.
The nature of data set [3]: Cytotoxicity, ATP-Lite, HRECs. Type of data set: cell-based. The conditions noted are these: human, HREC cells; HRECs; read-out: Cytotoxicity LC50. As to the method: (§1) Fa2N-4 immortalized human hepatocytes (Xenotech) or HREC cells were grown to subconfluency in wells of a 96-well plate and exposed to different concentrations of compounds for 24 h after which the cells were washed and the media and compounds replaced. The cells were returned to the incubator for another 24 h. The extent of cell death (cell lysis) was determined by ATP-Lite reagent (Perkin-Elmer).

For another data set, the system named is HRECs. The data set is described as follows: Cytotoxicity, ATP-Lite, HRECs. Type of data set: cell-based. The conditions noted are these: tested up to 100 μM. As for the experimental part:
as §1

Broadly, the logD is the decadic logarithm of the distribution of all forms, ionised or not, between an organic phase and buffer at a given pH. For `CCN(CC)Cc1cc(Nc2ccnc3cc(Cl)ccc23)ccc1O` [AQ, amodiaquine], the “CNV lesion size by optical coherence tomography vs vehicle treated eyes” value in data set [1] (14 days post-laser injury, intravitreal AQ 5.0-50.0 μg) is listed as “significantly smaller”. For the same molecule, the “CNV lesion volume vs vehicle control” value in data set [1] (AQ 5.0 μg intravitreal) is “not a statistically significant reduction”; in data set [1] (AQ 10.0 μg intravitreal) it was “not a statistically significant reduction”; in data set [1] (AQ 25.0 μg intravitreal) it was “statistically significant decrease”; in data set [1] (AQ 50.0 μg intravitreal) it was “an even greater decrease”. Also, in data set [1] (intravitreal AQ), the “CNV lesion size in confocal images of agglutinin-stained choroidal flatmounts” value was “reduction in CNV lesion size at 10μg AQ and higher”. In the data set “LogD (pH 7.4)”, this molecule registered a pH-dependent lipophilicity (logD) of 2.37. In addition, the Plasma stability in “Plasma stability, human” was 37.3 % remaining at 3 hrs. For the same molecule, the values for the Plasma-protein binding in data set [2] (1 μM) and in data set [2] (10 μM) were 75.3 % bound and 76.8 % bound, respectively. The CC50 at 48 h in data set [3] was greater than 100 µM. Moreover, the “Cytotoxicity to HRECs” value with HRECs is “Neither ML221 nor AQ were significantly toxic”.
